Common to all, as to format: binding, mASH1L
Test [1] concerns the target T1, ASH1L PHD finger (Mus musculus, UniProt Q99MY8).
T1 construct: The mASH1L PHD domain (residue 2573–2624); MBP (cleaved yes); made in house; host or cells: Escherichia coli BL21 (DE3)
Nature of the test: ITC, ASH1L PHD finger with H3 peptides. Conditions: 1×PBS, 100-μM ZnCl2, pH 7.2. Background: ITC needs no label: the signal is the heat of the interaction.
Description: The bacteria were grown in Luria Broth (LB) media, supplemented with 100-μM ZnCl2 (all PHD constructs). All PHD domains were expressed in Escherichia coli BL21 (DE3) cells and induced overnight with 0.5-mM isopropyl-β-D-1-thiogalactopyranoside (IPTG) at 22°C. In addition, the cells were harvested by centrifugation at 4,000 g. The harvested cells with MBP-tagged PHD were resuspended in buffer containing 25-mM Tris, pH 7.2, 1-M NaCl, 20-mM β-mercaptoethanol, 100-μM ZnCl2, and the Complete EDTA-free Protease Inhibitor (Roche, Mannheim, Germany). Following lysis in a microfluidizer (MFIC), cell debris was removed by centrifugation at 12,000 g for 1 h and the supernatant was loaded on a 5-ml MBPTrap HP column (GE Healthcare). The binding protein was eluted with buffer containing 25-mM Tris, pH 7.2, 500-mM NaCl, 20-mM β-mercaptoethanol, 20-mM maltose, and 100-μM ZnCl2. After TEV cleavage, the PHD domain was supplemented with 20-mM DTT and further purified using a Superdex 75 column (GE Healthcare, Uppsala, Sweden) in a final buffer containing 1×PBS, pH 7.2, 100- μM ZnCl2. […] The PHD protein was concentrated with a filter tube (Millipore, Co. Cork, Ireland) and measured by UV absorbance at 280 nm.
ITC assays were carried out on the MicroCal iTC200 System (Malvern) at 25°C while stirring at 750 rpm in the ITC buffer of pH 7.2, consisting of 1×PBS, 100-μM ZnCl2. […] The PHD or tandem Bromo-PHD protein sample of 100 µM was placed in the cell and titrated with 3 mM of a different peptide solution in the ITC buffer using a set of 31 injections of 1.2 μl, following a single initial injection of 0.2 μl. In the ITC measurements of PHD mutant samples, the H3 (1–15) peptides were diluted to the final concentrations of 1.5 mM, titrated with a single initial injection of 0.4 μl and followed with a set of 19 injections of 2 μl. Cumulative enthalpy exchange plots were derived from the raw thermal changes, using one set of a site-fitting model.

For test [2], the target named is T1, ASH1L PHD finger. In words: NMR titration, KD estimation. Conditions: 100 μM PHD, peptide 25-2,000 μM, 298 K, 1×PBS, pH 7.2, 100-μM ZnCl2; single-site model; mean ± SEM; H3 (1–15) peptides. An excerpt: (§1) The mASH1L PHD domain (residue 2573–2624) was subcloned into a modified pMAL-c5X expression vector (New England Biolabs, Ipswich, MA, US), which contains an MBP tag and a TEV cleavage site. The site-directed mutagenesis of D2573A, I2575A, D2584E, E2585A, M2588A, Q2590E, and W2597A in the PHD domain was generated using the PfuTurbo DNA polymerase (Agilent Technologies) and Dpn I restriction enzyme (New England Biolabs). After the MBP tag was cut by TEV, these proteins were used in ITC and NMR experiments. The His-tagged PHD domain was subcloned into a pGEX-4T1 expression vector. The base vector has a GST tag and was engineered to include a TEV cleavage site before a 5′ 6×His sequence. […]
(§2) The bacteria were grown in Luria Broth (LB) media, supplemented with 100-μM ZnCl2 (all PHD constructs). […] The size and purity of the purified protein were monitored by SDS-PAGE. The PHD protein was concentrated with a filter tube (Millipore, Co. Cork, Ireland) and measured by UV absorbance at 280 nm.
(§3) The ^1H,^15N HSQC spectra of the ^15N-labeled PHD finger were collected at 298 K on a Bruker 800-MHz NMR spectrometer equipped with the z-gradient triple-resonance cryoprobe. The binding was analyzed through monitoring chemical shift perturbations observed in the two-dimensional ^1H,^15N HSQC spectra of PHD finger upon the addition of H3 (aa 1-15) peptides (H3K4me, H3K4me2, H3K4me3). […]

For test [3], the target named is T2, ASH1L PHD M2588A (Mus musculus, UniProt Q99MY8, M2588A).
T2 construct: The mASH1L PHD domain (residue 2573–2624); MBP (cleaved yes); made in house; host or cells: Escherichia coli BL21 (DE3)
T2 sequence (Q99MY8 2573-2624 M2588A): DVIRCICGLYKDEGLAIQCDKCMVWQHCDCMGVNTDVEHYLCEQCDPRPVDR
In words: ITC, ASH1L PHD mutant M2588A. Conditions: 1.5 mM H3 (1–15) peptide, 25°C, pH 7.2, 1×PBS, 100-μM ZnCl2.
Source text: as §1, with “sequence. After the GST tag was cut, this protein was used for the peptide array assay. The His-tagged Bromo-PHD tandem domain (residue 2425–2627) of mASH1L was subcloned into a pNIC-Bsa4 expression vector, which contains a His tag.” for “sequence.”
(§4) The bacteria were grown in Luria Broth (LB) media, supplemented with 100-μM ZnCl2 (all PHD constructs). […] The size and purity of the purified protein were monitored by SDS-PAGE. The PHD protein was concentrated with a filter tube (Millipore, Co. Cork, Ireland) and measured by UV absorbance at 280 nm. […]

For test [4], the target named is T3, ASH1L PHD Q2590E (Mus musculus, UniProt Q99MY8, Q2590E).
T3 construct: The mASH1L PHD domain (residue 2573–2624); MBP (cleaved yes); made in house; host or cells: Escherichia coli BL21 (DE3)
T3 sequence (Q99MY8 2573-2624 Q2590E): T2 sequence (Q99MY8 2573-2624 M2588A) with A16M, Q18E
In words: ITC, ASH1L PHD mutant Q2590E. Conditions: 1.5 mM H3 (1–15) peptide, 25°C, pH 7.2, 1×PBS, 100-μM ZnCl2.
Source text: as §1, with “sequence. After the GST tag was cut, this protein was used for the peptide array assay. The His-tagged Bromo-PHD tandem domain (residue 2425–2627) of mASH1L was subcloned into a pNIC-Bsa4 expression vector, which contains a His tag.” for “sequence.”
as §4

The target in test [5] is T4, ASH1L PHD W2597A (Mus musculus, UniProt Q99MY8, W2597A).
T4 construct: The mASH1L PHD domain (residue 2573–2624); MBP (cleaved yes); made in house; host or cells: Escherichia coli BL21 (DE3)
T4 sequence (Q99MY8 2573-2624 W2597A): T2 sequence (Q99MY8 2573-2624 M2588A) with A16M, W25A
Nature of the test: ITC, ASH1L PHD mutant W2597A. Conditions: 1.5 mM H3 (1–15) peptide, 25°C, pH 7.2, 1×PBS, 100-μM ZnCl2.
Source text: as §1, with “sequence. After the GST tag was cut, this protein was used for the peptide array assay. The His-tagged Bromo-PHD tandem domain (residue 2425–2627) of mASH1L was subcloned into a pNIC-Bsa4 expression vector, which contains a His tag.” for “sequence.”
as §4

Test [6] concerns the target T1, ASH1L PHD finger. Nature of the test: 1H,15N HSQC chemical shift perturbation. Conditions: protein-to-peptide molar ratio 1:5; 298 K, 800 MHz, 1×PBS, pH 7.2, 100-μM ZnCl2.
Source text: as §1, §2, §3

Substitutions are numbered along the chain they refer to.

Regarding `C[C@H](N)C(=O)N[C@@H](CCCNC(=N)N)C(=O)N[C@H](C(=O)N[C@@H](CCCC[N+](C)(C)C)C(=O)N[C@@H](CCC(N)=O)C(=O)N[C@H](C(=O)N[C@@H](C)C(=O)N[C@@H](CCCNC(=N)N)C(=O)N[C@@H](CCCCN)C(=O)N[C@@H](CO)C(=O)N[C@H](C(=O)NCC(=O)NCC(=O)N[C@@H](CCCCN)C(=O)N[C@@H](C)C(=O)O)[C@@H](C)O)[C@@H](C)O)[C@@H](C)O` [H3K4me3], the Kd in test [1] (MicroCal iTC200, 25°C, 100 µM protein titrated with 3 mM peptide, H3 (1–15) peptides, H3 (2–16) K9me2, H3 (29–43) K36me2) was 64 ± 4 µM; in test [2] it was 106 ± 6 µM; in test [3], greater than 200 µM; in test [4], 33 ± 8 µM; in test [5], greater than 200 µM.

For the compound `CC(C)[C@H](NC(=O)CNC(=O)CNC(=O)[C@@H](NC(=O)[C@H](C)NC(=O)[C@@H]1CCCN1C(=O)[C@H](C)N)[C@@H](C)O)C(=O)N[C@@H](CCCCN(C)C)C(=O)N[C@@H](CCCCN)C(=O)N1CCC[C@H]1C(=O)N[C@@H](Cc1c[nH]cn1)C(=O)N[C@@H](CCCNC(=N)N)C(=O)N[C@@H](Cc1ccc(O)cc1)C(=O)N[C@@H](CCCNC(=N)N)C(=O)N1CCC[C@H]1C(=O)O` [H3K36me2], the “binding by ITC, in words” value in test [1] (25°C) is on record as “weak binding affinity”. In test [6], the “HSQC chemical shift perturbation” value was “binds with methylated H3K4 peptides but not H3K4me0, H3K9me2, or H3K36me2 peptides”.

As usually defined, the Kd is the concentration at which binding is half-saturated.

The values above are taken from PMC9399681, “Structural insight into ASH1L PHD finger recognizing methylated histone H3K4 and promoting cell growth in prostate cancer” (Frontiers in Oncology, 2022).
